Data as given in ChEMBL document CHEMBL2046376, “Synthesis and antimicrobial activity of amide derivatives of polyether antibiotic-salinomycin” (2012).
Values after ≈ are worked out from the molar mass of the structure shown. Active and inactive are the calls of the source. The calls are words filed in the database; no cut-off is given here.

How the values were obtained:
Format in all cases: functional
Candida albicans [1] = test: Antifungal activity against Candida albicans ATCC 10231 after 24 hrs by twofold serial agar dilution technique; conditions: for MIC: ATCC 10231, 24 h
Pseudomonas aeruginosa [2] = test: Antibacterial activity against Pseudomonas aeruginosa ATCC 15442 assessed as zone of inhibition at 400 ug/disc after 18 hrs by disc diffusion method; conditions: ATCC 15442, 18 h, read-out: DIZ
[3] = test system: Staphylococcus epidermidis; test: Antibacterial activity against Staphylococcus epidermidis ATCC 35984 after 18 hrs by twofold serial agar dilution technique; conditions: ATCC 35984, 18 h
Pseudomonas aeruginosa [4] = test: Antibacterial activity against Pseudomonas aeruginosa ATCC 15442 after 18 hrs by twofold serial agar dilution technique; conditions: for MIC: ATCC 15442, 18 h
Proteus vulgaris [5] = test: Antibacterial activity against Proteus vulgaris NCTC 4635 assessed as zone of inhibition at 400 ug/disc after 18 hrs by disc diffusion method; conditions: NCTC 4635, 18 h, read-out: DIZ
[6] = test system: Staphylococcus epidermidis; test: Antibacterial activity against Staphylococcus epidermidis ATCC 12228 after 18 hrs by twofold serial agar dilution technique; conditions: ATCC 12228, 18 h
Escherichia coli [7] = test: Antibacterial activity against Escherichia coli ATCC 10538 assessed as zone of inhibition at 400 ug/disc after 18 hrs by disc diffusion method; conditions: ATCC 10538, 18 h, read-out: DIZ
[8] = test system: Staphylococcus epidermidis; test: Antibacterial activity against Staphylococcus epidermidis ATCC 35984 assessed as zone of inhibition at 400 ug/disc after 18 hrs by disc diffusion method; conditions: ATCC 35984, 18 h, read-out: DIZ
Escherichia coli [9] = test: Antibacterial activity against Escherichia coli NCTC 8196 after 18 hrs by twofold serial agar dilution technique; conditions: for MIC: NCTC 8196, 18 h
Staphylococcus aureus [10] = test: Antibacterial activity against Staphylococcus aureus ATCC 29213 assessed as zone of inhibition at 400 ug/disc after 18 hrs by disc diffusion method; conditions: ATCC 29213, 18 h, read-out: DIZ
Proteus vulgaris [11] = test: Antibacterial activity against Proteus vulgaris NCTC 4635 after 18 hrs by twofold serial agar dilution technique; conditions: for MIC: NCTC 4635, 18 h
Pseudomonas aeruginosa [12] = test: Antibacterial activity against Pseudomonas aeruginosa ATCC 27853 after 18 hrs by twofold serial agar dilution technique; conditions: for MIC: ATCC 27853, 18 h
Escherichia coli [13] = test: Antibacterial activity against Escherichia coli ATCC 10538 after 18 hrs by twofold serial agar dilution technique; conditions: for MIC: ATCC 10538, 18 h
Staphylococcus aureus [14] = test: Antibacterial activity against Staphylococcus aureus ATCC 6538 assessed as zone of inhibition at 400 ug/disc after 18 hrs by disc diffusion method; conditions: ATCC 6538, 18 h, read-out: DIZ
[15] = test system: Bordetella bronchiseptica; test: Antibacterial activity against Bordetella bronchiseptica ATCC 4617 assessed as zone of inhibition at 400 ug/disc after 18 hrs by disc diffusion method; conditions: ATCC 4617, 18 h, read-out: DIZ
Escherichia coli [16] = test: Antibacterial activity against Escherichia coli ATCC 25922 assessed as zone of inhibition at 400 ug/disc after 18 hrs by disc diffusion method; conditions: ATCC 25922, 18 h, read-out: DIZ
Candida parapsilosis = test: Antifungal activity against Candida parapsilosis ATCC 22019 after 24 hrs by twofold serial agar dilution technique; conditions: for MIC: Lodderomyces parapsilosis, ATCC 22019, 24 h
Escherichia coli [17] = test: Antibacterial activity against Escherichia coli NCTC 8196 assessed as zone of inhibition at 400 ug/disc after 18 hrs by disc diffusion method; conditions: NCTC 8196, 18 h, read-out: DIZ
Staphylococcus aureus [18] = test: Antibacterial activity against Staphylococcus aureus ATCC 25923 assessed as zone of inhibition at 400 ug/disc after 18 hrs by disc diffusion method; conditions: ATCC 25923, 18 h, read-out: DIZ
Staphylococcus aureus [19] = test: Antibacterial activity against Staphylococcus aureus NCTC 4163 assessed as zone of inhibition at 400 ug/disc after 18 hrs by disc diffusion method; conditions: NCTC 4163, 18 h, read-out: DIZ
Staphylococcus aureus [20] = test: Antibacterial activity against Staphylococcus aureus NCTC 4163 after 18 hrs by twofold serial agar dilution technique; conditions: NCTC 4163, 18 h
Escherichia coli [21] = test: Antibacterial activity against Escherichia coli ATCC 25922 after 18 hrs by twofold serial agar dilution technique; conditions: ATCC 25922, 18 h
Pseudomonas aeruginosa [22] = test: Antibacterial activity against Pseudomonas aeruginosa ATCC 27853 assessed as zone of inhibition at 400 ug/disc after 18 hrs by disc diffusion method; conditions: ATCC 27853, 18 h, read-out: DIZ
Pseudomonas aeruginosa [23] = test: Antibacterial activity against Pseudomonas aeruginosa NCTC 6749 after 18 hrs by twofold serial agar dilution technique; conditions: for MIC: NCTC 6749, 18 h
Staphylococcus aureus [24] = test: Antibacterial activity against Staphylococcus aureus ATCC 6538 after 18 hrs by twofold serial agar dilution technique; conditions: ATCC 6538, 18 h
[25] = test system: Bordetella bronchiseptica; test: Antibacterial activity against Bordetella bronchiseptica ATCC 4617 after 18 hrs by twofold serial agar dilution technique; conditions: for MIC: ATCC 4617, 18 h
[26] = test system: Staphylococcus epidermidis; test: Antibacterial activity against Staphylococcus epidermidis ATCC 12228 assessed as zone of inhibition at 400 ug/disc after 18 hrs by disc diffusion method; conditions: ATCC 12228, 18 h, read-out: DIZ
Pseudomonas aeruginosa [27] = test: Antibacterial activity against Pseudomonas aeruginosa NCTC 6749 assessed as zone of inhibition at 400 ug/disc after 18 hrs by disc diffusion method; conditions: NCTC 6749, 18 h, read-out: DIZ
Staphylococcus aureus [28] = test: Antibacterial activity against Staphylococcus aureus ATCC 29213 after 18 hrs by twofold serial agar dilution technique; conditions: ATCC 29213, 18 h
Candida albicans [29] = test: Antifungal activity against Candida albicans ATCC 90028 after 24 hrs by twofold serial agar dilution technique; conditions: for MIC: ATCC 90028, 24 h
Staphylococcus aureus [30] = test: Antibacterial activity against Staphylococcus aureus ATCC 25923 after 18 hrs by twofold serial agar dilution technique; conditions: ATCC 25923, 18 h

| Compound | MIC (Candida albicans [1]) [µg/mL] | zone of inhibition at 400 µg/disc (Pseudomonas aeruginosa [2]) [mm] | MIC [3] [µg/mL] | MIC (Pseudomonas aeruginosa [4]) [µg/mL] | zone of inhibition at 400 µg/disc (Proteus vulgaris [5]) [mm] | MIC [6] [µg/mL] | zone of inhibition at 400 µg/disc (Escherichia coli [7]) [mm] | zone of inhibition at 400 µg/disc [8] [mm] | MIC (Escherichia coli [9]) [µg/mL] | zone of inhibition at 400 µg/disc (Staphylococcus aureus [10]) [mm] | MIC (Proteus vulgaris [11]) [µg/mL] | MIC (Pseudomonas aeruginosa [12]) [µg/mL] | MIC (Escherichia coli [13]) [µg/mL] | zone of inhibition at 400 µg/disc (Staphylococcus aureus [14]) [mm] | zone of inhibition at 400 µg/disc [15] [mm] | zone of inhibition at 400 µg/disc (Escherichia coli [16]) [mm] | zone of inhibition at 400 µg/disc (Staphylococcus aureus [18]) [mm] | zone of inhibition at 400 µg/disc (Staphylococcus aureus [19]) [mm] | zone of inhibition at 400 µg/disc [26] [mm] | MIC (Staphylococcus aureus [28]) [µg/mL] | further results |
| --- | --- | --- | --- | --- | --- | --- | --- | --- | --- | --- | --- | --- | --- | --- | --- | --- | --- | --- | --- | --- | --- |
| CC[C@@H](C(=O)[C@@H](C)[C@@H](O)[C@H](C)[C@@H]1O[C@@H]([C@@H](CC)C(=O)NCCOCCOCCOC)CC[C@@H]1C)[C@H]1O[C@]2(C=C[C@@H](O)[C@]3(CC[C@@](C)([C@H]4CC[C@](O)(CC)[C@H](C)O4)O3)O2)[C@H](C)C[C@@H]1C | ≥ 256 | 10 | ≥ 256 | ≥ 256 | 10 | ≥ 256 | 10 | 10 | ≥ 256 | 10 | ≥ 256 | ≥ 256 | ≥ 256 | 10 | 10 | 10 | 10 | 10 | 10 | ≥ 256 | MIC (Candida parapsilosis): ≥ 256 µg/mL; zone of inhibition at 400 µg/disc (Escherichia coli [17]): 10 mm; MIC (Staphylococcus aureus [20]): ≥ 256 µg/mL; MIC (Escherichia coli [21]): ≥ 256 µg/mL; zone of inhibition at 400 µg/disc (Pseudomonas aeruginosa [22]): 10 mm; MIC (Pseudomonas aeruginosa [23]): ≥ 256 µg/mL; MIC (Staphylococcus aureus [24]): ≥ 256 µg/mL; MIC [25]: ≥ 256 µg/mL; zone of inhibition at 400 µg/disc (Pseudomonas aeruginosa [27]): 10 mm; MIC (Candida albicans [29]): ≥ 256 µg/mL; MIC (Staphylococcus aureus [30]): ≥ 256 µg/mL |
| C=CCNC(=O)[C@H](CC)[C@H]1CC[C@H](C)[C@H]([C@@H](C)[C@H](O)[C@H](C)C(=O)[C@H](CC)[C@H]2O[C@]3(C=C[C@@H](O)[C@]4(CC[C@@](C)([C@H]5CC[C@](O)(CC)[C@H](C)O5)O4)O3)[C@H](C)C[C@@H]2C)O1 [SALINOMYCIN ALLYL AMIDE] | ≥ 256 | 10 | ≥ 256 | ≥ 256 | 10 | ≥ 256 | 10 | 10 | ≥ 256 | 10 | ≥ 256 | ≥ 256 | ≥ 256 | 10 | 10 | 10 | 10 | 10 | 10 | ≥ 256 | MIC (Candida parapsilosis): ≥ 256 µg/mL; zone of inhibition at 400 µg/disc (Escherichia coli [17]): 10 mm; MIC (Staphylococcus aureus [20]): ≥ 256 µg/mL; MIC (Escherichia coli [21]): ≥ 256 µg/mL; zone of inhibition at 400 µg/disc (Pseudomonas aeruginosa [22]): 10 mm; MIC (Pseudomonas aeruginosa [23]): ≥ 256 µg/mL; MIC (Staphylococcus aureus [24]): ≥ 256 µg/mL; MIC [25]: ≥ 256 µg/mL; zone of inhibition at 400 µg/disc (Pseudomonas aeruginosa [27]): 10 mm; MIC (Candida albicans [29]): ≥ 256 µg/mL; MIC (Staphylococcus aureus [30]): ≥ 256 µg/mL |
| O=C(O)c1cn(C2CC2)c2cc(N3CCNCC3)c(F)cc2c1=O [CIPROFLOXACIN] | – | – | 0.25 (≈ 0.754 µM) | – | – | – | – | 32 | – | 22 | – | – | – | 28 | – | – | 26 | 26 | 30 | 0.25 (≈ 0.754 µM) | Activity (Candida albicans [1]): inactive; Activity (Pseudomonas aeruginosa [4]): inactive; Activity (Escherichia coli [9]): inactive; Activity (Proteus vulgaris [11]): inactive; Activity (Pseudomonas aeruginosa [12]): inactive; Activity (Escherichia coli [13]): inactive; Activity (Candida parapsilosis): inactive; Activity (Pseudomonas aeruginosa [23]): inactive; Activity [25]: inactive; Activity (Candida albicans [29]): inactive |
